Bridges are numbered along the chain shown (N, C = ends). Where no end group is shown, it is not given here.
Key:
rat perfused colon = assay: GLP-1 secretion from rat perfused colon ex vivo
Method: Ex vivo rat colon vascular perfusion experiments were performed as previously described (Plaisancié, 1995). Male Sprague-Dawley rats (300 g) were purchased from Charles River and fed ad libitum with Purina Lab Chow #5001 (WF Fisher and Son Inc Sommerville, N.J.). Rats were decapitated and the abdomen was opened with a midline incision. […] The arterial vascular perfusion started immediately with an oxygenated Krebs-Henseleit buffer containing-solution at a rate of 2 mL/minute [solution: Krebs-Henseleit buffer (25.0 mM NaHCO3; 118 mM NaCl; 4.7 mM KCl; 1.2 mM MgSO4; 1.2 mM KH2PO4; 2.5 mM CaCl2) with 3% BSA, 5 mM glucose, MEM essential and nonessential amino acids (pH 7.4)]. The colonal lumen was perfused at the rate of 0.5 mL/minute. The remaining colon and small intestine were removed after the ligation of their respective supplying vessels. After the colon preparation was transferred to a 37° C. tissue bath, the portal effluent was collected as 5 minute fractions. The fraction aliquots were frozen at −20° C. for subsequent determinations of GLP-1. EDN3 97-140 was dissolved at 200 nM in vascular perfusion solution and perfused into the artery after a 30 minute baseline collection. […] The GLP-1 detection assay was carried out by using a commercial kit for active GLP-1 (7-36) amide according to the manufacturer's instructions (Millipore). GLP-1 release data was normalized to % baseline using the average of fractions collected prior to treatment as the baseline value and the peak data following each treatment. The average data across 3 independent experiments was reported comparing EDN3 97-140 versus control (baseline) and forskolin versus control (baseline). Statistical analysis was performed by one sided Satterwaite's test due to unequal variance and the Holm test was applied to account for multiple comparisons.

[1] = target: T1, human endothelin ETB receptor (Homo sapiens, UniProt P24530); assay: Radioligand binding, human endothelin ETB receptor in transfected CHO cell membranes; settings: tested at a concentration of up to 3 μM (p>0.05)
T1 construct: expressed in transfected cells; host or cells: CHO cells
T1 sequence (P24530 27-442): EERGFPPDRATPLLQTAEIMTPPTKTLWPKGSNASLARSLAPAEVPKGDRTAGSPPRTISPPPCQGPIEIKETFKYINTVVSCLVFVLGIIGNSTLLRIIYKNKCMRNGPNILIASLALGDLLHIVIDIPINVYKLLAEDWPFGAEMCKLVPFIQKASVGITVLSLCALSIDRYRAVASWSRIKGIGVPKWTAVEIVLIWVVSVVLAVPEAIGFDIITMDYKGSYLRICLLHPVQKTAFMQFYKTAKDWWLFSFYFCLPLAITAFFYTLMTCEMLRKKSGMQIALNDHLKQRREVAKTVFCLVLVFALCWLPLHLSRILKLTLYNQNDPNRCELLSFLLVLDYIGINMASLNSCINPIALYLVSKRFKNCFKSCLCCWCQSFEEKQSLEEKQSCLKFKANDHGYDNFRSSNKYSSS
Method: To evaluate the affinity of EDN3 97-140 for the agonist site of the human endothelin ETB receptor in transfected CHO cells, radioligand binding was used. […] Following incubation, the samples were filtered rapidly under vacuum through glass fiber filters (GF/B, Packard) presoaked with 0.1% BSA and rinsed several times with an ice-cold buffer containing 50 mM Tris-HCl and 150 mM NaCl using a 96-sample cell harvester (Unifilter, Packard). The filters were dried then counted for radioactivity in a scintillation counter (Topcount, Packard) using a scintillation cocktail (Microscint 0, Packard).

H4IIE rat hepatoma cells = assay: H4IIE glucose production in vitro; assay type: cell-based; settings: 100 nM, 24 hours, mean of 3 independent experiments±SEM, p=0.01
Method: Cell culture reagents were purchased from Invitrogen (Gathersburg, Md.) unless otherwise noted. GLUTag cells were obtained from Dr. Daniel Drucker and cultured in High Glucose DMEM medium supplemented with 100 U/mL penicillin, 100 μg/mL streptomycin, and 10% fetal calf serum at 10% CO2 at 37° C. H4IIE rat hepatoma cells were purchase from American Type Culture Collection (Manassas, Va.) and cultured in low glucose DMEM supplemented with 100 U/mL penicillin, 100 μg/mL streptomycin, 2 mM L-glutamine and 10% heat-inactivated fetal calf serum at 5% CO2 and 37° C.
H4IIE cells were plated at 120,000 cells per well into 96-well Poly-D-Lysine coated plates and treated using a modification of the protocol as previously reported (de Raemy-Schenk, 2006). Briefly, 4 hours after plating, growth medium was exchanged for glucose production medium (glucose-free DMEM, 2 mM sodium pyruvate, and 20 mM sodium lactate) for 18 hours and then cells were treated with EDN3 97-140 or vehicle in fresh glucose production medium. After 24 hours, media was collected and assayed for glucose using an Amplex Red Glucose/Glucose Oxidase Assay Kit purchased from Invitrogen (Gathersburg, Md.). Data was reported as a percent of vehicle to normalize across experiments. […]

GLUTag cells = settings: GLUTag cells
DIO mice = assay: Glucose tolerance (IPGTT) in DIO mice; assay type: in vivo, mouse; settings: for decrease of glucose excursion: 2 g/kg glucose challenge i.p., mean±SEM n=8
Method: DIO mice fed on a high fat diet for 14 weeks and ob/ob mice were purchased from Jackson Labs. Ob/Ob mice and DIO mice used in all studies were used at 7 and 18 weeks old, respectively. After an overnight fast, ob/ob and DIO mice were injected with vehicle (20 mM Na acetate/140 mM NaCl) or EDN3 97-140 (0.1, 1 or 10 mg/kg i.p.) followed by a […] (i.p.) or 2 g/kg (i.p.) D-glucose challenge in ob/ob and DIO mice respectively. Plasma glucose levels were determined from mouse tail vein bleeds at 0, 15, 30, 60, and 120 minutes after compound injection and measured using an automatic glucometer (Alpha-Trak). To determine the acute insulin release, plasma insulin levels were measured by using an ELISA kit with mouse insulin as a standard (Meso Scale Discovery). Results were expressed as percentages of vehicle concentrations and statistical significance determined by 2-way ANOVA repeated measures.

Insulin tolerance test = assay type: in vivo; settings: 1 and 10 mg/kg i.p., acute administration (data not shown)

CTCFTYKDKECVYYCHLDIIWINTPEQTVPYGLSNYRESLRGKR-NH2 (disulfide 1-15, 3-11) [EDN3 97-140]
increase in GLP secretion from the rat perfused colon (rat perfused colon; 200 nM perfused via the superior mesenteric artery, vs baseline, p=0.0438): 56±18%
increase in GLP-1 release (rat perfused colon; 200 nM, rat perfused colon): ~10 pM
binding to ETB receptor [1]: failed to bind
reduction of basal glucose production versus vehicle (H4IIE rat hepatoma cells): 19.5±7.6%
stimulated GLP-1 secretion (GLUTag cells; 1 μM, vehicle pre-treatment): 327±59 % of vehicle
GLP-1 secretion from GLUTag cells, result in words (GLUTag cells; endothelin-3 at highest concentration 10 μM): most potent peptide tested
EC50 (GLUTag cells; read-out: EC50, GLP-1 release GLUTag assay, 15 mM glucose): 369 nM
decrease of glucose excursion (DIO mice; DIO mice, 0.1 mg/kg i.p.): 19±7.2%
decrease of glucose excursion (DIO mice; DIO mice, 1 mg/kg i.p.): 20.7±8.7%
insulin during IPGTT (DIO mice; DIO mice, i.p. (p>0.05)): no statistically significant effect on insulin
glucose excursion curve in response to an IPGTT (DIO mice; diet induced obese mice, acute peripheral administration 0.1, 1 or 10 mg/kg i.p.): decreased
effect on insulin tolerance test (Insulin tolerance test): no effect

Reference: US20130345392A1, “EDN3-LIKE PEPTIDES AND USES THEREOF” (Pfizer Inc, priority 2011, published 2013)
